Results reported in patent publication US11098034B2, “Pyrazolyl substituted carbonic acid derivatives as modulators of the prostacyclin (PGI2) receptor useful for the treatment of disorders related thereto” (Arena Pharmaceuticals, Inc., priority 2008, dated 2021).

Test system: MCT-induced pulmonary arterial hypertension in rat
Test: Rat monocrotaline model of pulmonary arterial hypertension
Type: in vivo
Details: male Wistar rats, MCT 60 mg/kg s.c.; test compound 30 mg/kg oral gavage twice a day for 21 days; heart weights Day 22
Method: Animals: Male Wistar rats (100-150 g at start of study) (Charles River Laboratories, Wilmington, Mass.) were housed two per cage and maintained in a humidity—(40-60%) and temperature—(68-72° F.) controlled facility on a 12 hr:12 hr light/dark cycle (lights on at 6:30 am) with free access to food (Harlan Teklad, Orange Calif., Rodent Diet 8604) and water. Rats were allowed one week of habituation to the animal facility before testing.
Rat monocrotaline model: The rat monocrotaline (MCT) model is a standard and well-accepted model of pulmonary arterial hypertension. MCT induces acute pulmonary endothelial damage associated with pulmonary vascular inflammation. […]
Rats were randomly given a single subcutaneous injection of either 60 mg/kg MCT (Sigma, St. Louis, Mo.) or 0.9% saline (sham) and assigned to receive oral administration of 20% hydroxypropyl beta-cyclodextrin (vehicle) or test compound (30 mg/kg; FIGS. 1 and 2). […] Heart chamber weights were measured on Day 22. […] The ratio of right ventricular (RV) weight to left ventricle plus septum (LV+S) weight (this ratio is indicated as “RV/(LV+S)” in FIGS. 1 and 2) was calculated as an index of the hypertrophic response to the induced pulmonary arterial hypertension and, as such, as an index of a test compound's therapeutic efficacy for pulmonary arterial hypertension.

## COc1cccc(-c2c(-c3ccccc3)nn(C[C@H]3CC[C@@H](COCC(=O)O)CC3)c2C)c1 [Compound 14, 2-(((1s,4s)-4-((4-(3-Methoxyphenyl)-5-methyl-3-phenyl-1H-pyrazol-1-yl)methyl)cyclohexyl)methoxy)acetic Acid]
  hypertrophic response to the induced pulmonary arterial hypertension, RV/(LV+S): inhibited the hypertrophic response

## COc1cccc(-c2c(-c3ccccc3)nn(C[C@H]3CC[C@@H](COCC(=O)O)CC3)c2SC)c1 [Compound 31, 2-(((1s,4s)-4-((4-(3-Methoxyphenyl)-5-(methylthio)-3-phenyl-1H-pyrazol-1-yl)methyl)cyclohexyl)methoxy)acetic Acid]
  hypertrophic response to the induced pulmonary arterial hypertension, RV/(LV+S): inhibited the hypertrophic response
